Measurements published in patent US7223759B2, “Antibacterial 3,5-diaminopiperidine-substituted aromatic and heteroaromatic compounds” (Anadys Pharmaceuticals, Inc., priority 2003, dated 2007).
Like-named read-outs stand apart in the source and are kept apart here.

Test system: Escherichia coli (ATCC25922) or Staphylococcus aureus (ATCC25923)
Test: Antibacterial MIC, microdilution method in Mueller-Hinton medium
Type: cell-based
Details: Escherichia coli, 18 h, read-out: Potency (MIC)
In short: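 Two-fold serial dilutions from 64 to 0.5 μg/ml, in duplicate, by broth microdilution in Mueller-Hinton medium (NCCLS M7-A5). MIC taken as the lowest concentration preventing visible growth after 18 h at 35° C.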

[1] = MIC in E. coli or S. aureus, two-fold serial dilutions 64 to 0.5 μg/ml in duplicate, 18 hours of incubation at 35° C.

Cc1cc(Nc2nc(N3C[C@H](N)C[C@H](N)C3)nc(N3C[C@H](N)C[C@H](N)C3)n2)ccc1[N+](=O)[O-] [N-(3-methyl-4-nitro-phenyl)-4,6-Bis-((3R,5S)-3,5-diamino-piperidin-1-yl)-[1,3,5]triazine-2-amine]
MIC: < 64 µg/mL

COc1nc(Nc2ccc3c(C)cc(=O)oc3c2)nc(N2CCCCC2)n1.Cl [7-[4-((3R,5S)-3,5-DSiamino-piperidin-1-yl)-6-methoxy-[1,3,5]triazin-2-ylamino]-4-methyl-chromen-2-one]
MIC [1]: > 64 µg/mL

COc1ccc(C(=O)Nc2ccc(Nc3nc(N4C[C@H](N)C[C@H](N)C4)nc(N4C[C@H](N)C[C@H](N)C4)n3)cc2O)c(O)c1OC [N-[3-hydroxy-4-(2-hydroxy-3,4-dimethoxy-benzoylamino)-phenyl]-4,6-Bis-((3R,5S)-3,5-diamino-piperidin-1-yl)-[1,3,5]triazine-2-amine]
MIC: < 64 µg/mL

NC[C@@H]1C[C@H](N)CN1c1nc(Nc2ccc(C(=O)Oc3ccccc3)c(O)c2)nc(N2C[C@H](N)C[C@H](N)C2)n1 [4-[4-((2S,4S)-4-Amino-2-aminomethyl-pyrrolidin-1-yl)-6-((3R,5S)-3,5-diamino-piperidin-1-yl)-[1,3,5]triazin-2-ylamino]-2-hydroxy-benzoic acid phenyl ester]
MIC: < 16 µg/mL

N[C@@H]1C[C@H](N)CN(c2nc(Nc3ccccc3N3CCCCC3)nc(N3C[C@H](N)C[C@H](N)C3)n2)C1 [N-(2-piperidin-1-yl-phenyl)-4,6-Bis-((3R,5S)-3,5-diamino-piperidin-1-yl)-[1,3,5]triazine-2-amine]
MIC: > 64 µg/mL

COc1ccc(NC(C)=O)cc1Nc1nc(N2C[C@H](N)C[C@H](N)C2)nc(N2C[C@H](N)C[C@H](N)C2)n1 [N-(5-acetylamino-2-methoxy-phenyl)-4,6-Bis-((3R,5S)-3,5-diamino-piperidin-1-yl)-[1,3,5]triazine-2-amine]
MIC [1]: > 64 µg/mL

COc1ccc(NC(=O)c2cccc(O)c2O)c(Nc2nc(N3C[C@H](N)C[C@H](N)C3)nc(N3C[C@H](N)C[C@H](N)C3)n2)c1 [N-[2-(2,3-dihydroxy-benzoylamino)-5-methoxy-phenyl]-4,6-Bis-((3R,5S)-3,5-diamino-piperidin-1-yl)-[1,3,5]triazine-2-amine]
MIC: > 64 µg/mL

N[C@@H]1C[C@H](N)CN(c2nc(Nc3cccc(NC(=O)c4ccc(O)cc4O)c3)nc(N3C[C@H](N)C[C@H](N)C3)n2)C1 [N-[3-(2,4-dihydroxy-benzoylamino)-phenyl]-4,6-Bis-((3R,5S)-3,5-diamino-piperidin-1-yl)-[1,3,5]triazine-2-amine]
MIC: < 16 µg/mL

COc1ccccc1C(=O)Nc1ccc(Nc2nc(N3C[C@H](N)C[C@H](N)C3)nc(N3C[C@H](N)C[C@H](N)C3)n2)cc1O [N-[3-hydroxy-4-(2-methoxy-benzoylamino)-phenyl]-4,6-Bis-((3R,5S)-3,5-diamino-piperidin-1-yl)-[1,3,5]triazine-2-amine]
MIC: < 16 µg/mL

N[C@@H]1C[C@H](N)CN(c2nc(Nc3ccc(C(=O)Nc4ccc(F)cc4)c(O)c3)nc(N3C[C@H](N)C[C@H](N)C3)n2)C1 [N-[4-(4-fluoro-phenylcarbamoyl)-3-hydroxy-phenyl]-4,6-Bis-((3R,5S)-3,5-diamino-piperidin-1-yl)-[1,3,5]triazine-2-amine]
MIC: < 16 µg/mL

CC(=O)c1ccc(Nc2nc(N3C[C@H](N)C[C@H](N)C3)nc(N3CCC[C@@H](O)C3)n2)cc1 [1-{4-[4-((3R,5S)-3,5-Diamino-piperidin-1-yl)-6-((R)-3-hydroxy-piperidin-1-yl)-[1,3,5]triazin-2-ylamino]-phenyl}-ethanone]
MIC: > 64 µg/mL

Cc1ccc(S(=O)(=O)N(Cc2ccccc2)c2ccc(Nc3nc(N4CCCCC4)nc(N4CCN(c5ccncc5)CC4)n3)cc2O)cc1.Cl [N-Benzyl-N-{4-[4-((3R,5SD)-3,5-diamino-piperidin-1-yl)-6-(4-pyridin-4-yl-piperazin-1-yl)-[1,3,5]triazin-2-ylamino]-2-hydroxy-phenyl}-4-methyl-benzenesulfonamide]
MIC [1]: < 16 µg/mL

Cc1ccc(C(=O)Nc2ccc(Nc3nc(N4C[C@H](N)C[C@H](N)C4)nc(N4C[C@@H](N)C[C@@H](O)C4)n3)cc2O)cc1 [N-{4-[4-((3S,5R)-3-Amino-5-hydroxy-piperidin-1-yl)-6-((3R,5S)-3,5-diamino-piperidin-1-yl)-[1,3,5]triazin-2-ylamino]-2-hydroxy-phenyl}-4-methyl-benzamide]
MIC: < 64 µg/mL

N[C@@H]1C[C@H](N)CN(c2nc(Nc3ccc4c(c3)Cc3ccccc3-4)nc(N3C[C@H](N)C[C@H](N)C3)n2)C1 [N-(9H-fluoren-2-yl)-4,6-Bis-((3R,5S)-3,5-diamino-piperidin-1-yl)-[1,3,5]triazine-2-amine]
MIC: < 16 µg/mL

N[C@@H]1C[C@H](N)CN(c2nc(Nc3ccc(C(=O)Nc4cc(Cl)c(O)c(Cl)c4)c(O)c3)nc(N3C[C@H](N)C[C@H](N)C3)n2)C1 [N-[4-(3,5-dichloro-4-hydroxy-phenylcarbamoyl)-3-hydroxy-phenyl]-4,6-Bis-((3R,5S)-3,5-diamino-piperidin-1-yl)-[1,3,5]triazine-2-amine]
MIC: < 64 µg/mL

CCC(=O)Nc1ccc(Nc2nc(N3C[C@H](N)C[C@H](N)C3)nc(N3C[C@H](N)C[C@H](N)C3)n2)cc1O [N-(3-hydroxy-4-propionylamino-phenyl)-4,6-Bis-((3R,5S)-3,5-diamino-piperidin-1-yl)-[1,3,5]triazine-2-amine]
MIC [1]: < 64 µg/mL

Cl.NC(=O)c1ccc(Nc2nc(N3C[C@H](N)C[C@H](N)C3)nc(N3C[C@H](N)C[C@H](N)C3)n2)nc1 [N-(5-carbamoyl-pyridin-2-yl)-4,6-Bis-((3R,5S)-3,5-diamino-piperidin-1-yl)-[1,3,5]triazine-2-amine]
MIC [1]: > 64 µg/mL

CC(=O)c1ccc(Nc2nc(N3C[C@H](N)C[C@H](N)C3)nc(N3C[C@@H](N)C[C@H]3CN)n2)cc1 [1-{4-[4-((2S,4S)-4-Amino-2-aminomethyl-pyrrolidin-1-yl)-6-((3R,5S)-3,5-diamino-piperidin-1-yl)-[1,3,5]triazin-2-ylamino]-phenyl}-ethanone]
MIC: > 64 µg/mL

Cl.Nc1nc(Nc2ccc(Cl)c(Cl)c2)nc(C2C[C@@H](N)C[C@@H](N)C2)n1 (stereo partly drawn) [6-((3S,5R)-3,5-Diamino-piperidin-1-yl)-N-(3,4-dichlorro-phenyl)-[1,3,5]triazine-2,4-diamine]
MIC [1]: > 64 µg/mL

Cc1ccc(C(=O)Nc2ccc(Nc3nc(N4C[C@H](N)C[C@H](N)C4)nc(N4C[C@H](CN)C[C@H](CN)C4)n3)cc2O)cc1 [N-{4-[4-((3S,5R)-3,5-Bis-(aminomethyl)-piperidin-1-yl)-6-((3R,5S)-3,5-diamino-piperidin-1-yl)-[1,3,5]triazin-ylamino]-2-hydroxy-phenyl}-4-methyl-benzamide]
MIC: < 64 µg/mL

CNC(=S)NNc1nc(N2C[C@H](N)C[C@H](N)C2)nc(N2C[C@H](N)C[C@H](N)C2)n1 [N-(3-methyl-thioureido)-4,6-Bis-((3R,5S)-3,5-diamino-piperidin-1-yl)-[1,3,5]triazine-2-amine]
MIC: > 64 µg/mL

N[C@@H]1C[C@H](N)CN(c2nc(Nc3ccc(-n4c5ccccc5c5ccccc54)cc3)nc(N3C[C@H](N)C[C@H](N)C3)n2)C1 [N-(4-carbazol-9-yl-phenyl)-4,6-Bis-((3R,5S)-3,5-diamino-piperidin-1-yl)-[1,3,5]triazine-2-amine]
MIC: < 16 µg/mL

COc1cnc(NS(=O)(=O)c2ccc(Nc3nc(N4C[C@H](N)C[C@H](N)C4)nc(N4C[C@H](N)C[C@H](N)C4)n3)cc2)nc1 [N-{4-(5-methoxy-pyrimidin-2-ylsulfamoyl)-phenyl]-4,6-Bis-((3R,5S)-3,5-diamino-piperidin-1-yl)-[1,3,5]triazine-2-amine]
MIC [1]: > 64 µg/mL

N[C@@H]1C[C@H](N)CN(c2nc(Nc3ccc(NC(=O)c4ccc(F)c(F)c4O)c(O)c3)nc(N3C[C@H](N)C[C@H](N)C3)n2)C1 [N-[4-(3,4-difluoro-2-hydroxy-benzoylamino)-3-hydroxy-phenyl]-4,6-Bis-((3R,5S)-3,5-diamino-piperidin-1-yl)-[1,3,5]triazine-2-amine]
MIC: < 64 µg/mL

NC[C@@H]1C[C@@H](O)CN1c1nc(Nc2ccc3c(c2)C(=O)c2ccccc2-3)nc(N2C[C@H](N)C[C@H](N)C2)n1 [2-[4-((2S,4R)-2-Aminomethyl-4-hydroxy-pyrrolidin-1-yl)-6-((3R,5S)-3,5-diamino-piperidin-1-yl)-[1,3,5]triazin-2-ylamino]-fluoren-9-one]
MIC: > 64 µg/mL

Cc1cc(NC(=O)c2ccccc2)c(Cl)cc1Nc1nc(N2CCCCC2)nc(N2CCCCC2)n1 [N-(4-benzoylamino-5-chloro-23-methyl-phenyl)-4,6-Bis((3R,5S)-3,5-diamino-piperidin-1-yl)-[1,3,5]triazine-2-amine]
MIC [1]: > 64 µg/mL

N[C@@H]1C[C@H](N)CN(c2nc(Nc3ccc(NC(=O)c4c(O)ccc5ccccc45)c(Cl)c3)nc(N3C[C@H](N)C[C@H](N)C3)n2)C1 [N-{3-chloro-4-[(2-hydroxy-naphthalene-1-carbonyl)-amino]-phenyl}-4,6-Bis-((3R,5S)-3,5-diamino-piperidin-1-yl)-[1,3,5]triazine-2-amine]
MIC: < 16 µg/mL

N[C@@H]1C[C@H](N)CN(c2nc(Nc3ccc(C(=O)Nc4cccc(SC(F)(F)F)c4)c(O)c3)nc(N3C[C@H](N)C[C@H](N)C3)n2)C1 [N-[3-hydroxy-4-(3-trifluoromethylsulfanyl-phenylcarbamoyl)-phenyl]-4,6-Bis-((3R,5S)-3,5-diamino-piperidin-1-yl)-[1,3,5]triazine-2-amine]
MIC: < 16 µg/mL

Cl.NCCN(CCN)c1nc(Nc2ccc(C(=O)Oc3ccccc3)c([N+](=O)[O-])c2)nc(N2CCCCC2)n1 [4-[4-[Bis-(2-amino-ethyl)-amino]-6-((3R,5S)-3,5-diamino-piperidin-1-yl)-[1,3,5]triazin-2-ylamino]-2-hydroxy-benzoic acidphenyl ester]
MIC [1]: < 64 µg/mL

N[C@@H]1C[C@H](N)CN(c2nc(Nc3ccc(S(=O)(=O)Nc4ccc5cn[nH]c5c4)cc3)nc(N3C[C@H](N)C[C@H](N)C3)n2)C1 [N-[4-(1H-indazol-6-ylsulfamoyl)-phenyl]-4,6-Bis-((3R,5S)-3,5-diamino-piperidin-1-yl)-[1,3,5]triazine-2-amine]
MIC [1]: > 64 µg/mL
